This note sets out measurements from US20210393597A1, “TARGETING THE TRANSCRIPTION FACTOR NF-KB WITH HARMINE” (DANA-FARBER CANCER INSTITUTE, INC., priority 2018, published 2021).

“Also recorded” adds a separate entry of the source.

Type in all cases: cell-based
For experiment [1], the system named is NF-κB target genes (BIRC3, TNFAIP3, IL-8). The experiment is described as follows: qRT-PCR of NF-κB target gene expression in cancer cells. Here is the method:
RNA was isolated using an RNeasy kit (Qiagen, Valencia, Calif.). cDNA was generated using the Taqman reverse transcription kit (Applied Biosystems, Foster City, Calif.). qRT-PCR was performed using Sybr Select or Power Sybr green master mix (Applied Biosystems). Samples were plated in triplicate and run on a 7300 or 7500 real time PCR machine (Applied Biosystems), using the indicated primers (Table 2). Target gene expression was normalized to actin, HPRT, or GAPDH. Data are expressed as mean fold change+/−SEM and are representative of at least two independent biological replicates.

Experiment [2] concerns p65. In words: Single cell nuclear translocation analysis, HeLa p65-EGFP cells. Conditions: 1 uM, imaged 18 hours. The protocol: Hela cells stably expressing EGFP-tagged p65 were imaged for one hour prior to addition of either 1 uM Jak inhibitor 1 or 100 ng/mL TNF, and then for an additional 18 hours. Transmitted light and widefield epifluorescent images were captured at 10 min intervals using a BD Pathway 855 Bioimager with a 20× objective (0.75 NA; Olympus). Imaging was performed in an environmental chamber set to 37θC and 5% CO2. Five fields of view were analyzed per condition and the nuclear translocation of p65-EGFP was manually scored for each cell.

Experiment [3] relates to NF-κB. The experiment is described as follows: Dual luciferase reporter assay, OVCAR8 cells transfected with NF-κB dependent reporter. Particulars: 24 hours. An excerpt:
(§1) Cells were transfected with firefly luciferase plasmids for STAT3 (m67-Luc) or NF-KB-Luc (Stratagene, Santa Clara, Calif.) and a Renilla luciferase plasmid (Promega, Madison, Wis.). The NF-κB-responsive cell line was generated with an NF-κB-responsive reporter plasmid (catalogue no. 219078; Strategene, La Jolla, Calif., incorporated herein by reference). Cells were also co-transfected with a plasmid expressing Renilla luciferase under a constitutive promoter for normalization (pRL-TK plasmid; Promega; Madison, Wis., incorporated herein by reference). Dual luciferase assays were performed as described (Walker et al., 2007 Oncogene, 26: 224-233, incorporated herein by reference).

Experiment [4] deals with STAT3. The experiment is described as follows: STAT3-dependent luciferase reporter counterscreen in STAT3-Luc cells. Particulars: drug one hour, then IL-6 for 6 hours. The protocol: (§2) To identify NF-κB inhibitors, the Prestwick Chemical Library, which contains 1120 bioactive compounds, was screened for activity against cells expressing NF-κB-dependent luciferase (Nelson et al., 2008 Blood, 112(13):5095-102). To confirm the specificity of identified compounds, NF-κB-Luc and STAT3-Luc cells were treated with the indicated doses of drug for one hour followed by stimulation with TNF or IL-6 respectively for 6 hours. Luciferase activity was assessed using the Bright-Glo Luciferase Assay system (Promega).

In experiment [5] the test system is INA6 cells. In words: Apoptosis by PARP cleavage immunoblot, INA6 cells. Particulars: 24 hours. Here is the method: (§3) Immunoblots were performed as described (Nelson et al., 2008 Blood, 112: 5095-5102). Nuclear and cytoplasmic fractions were isolated using the Nuclear Extract Kit (Active Motif North America, Carlsbad, Calif.). Antibodies were used recognizing phospho-tyrosine STAT3 (9131), PARP (9542), p65 (8242), RelB (4922) (Cell Signaling; Beverly, Mass.); actin (A-5316) and tubulin (T-5168) (Sigma); and STAT3 (sc-482), p50 (sc-7178), and calnexin (sc-11397) (Santa Cruz Biotechnology; Santa Cruz, Calif.).

Experiment [6] concerns NF-κB. In words: NF-κB-dependent luciferase reporter assay in NF-κB-Luc cells (Prestwick library screen and confirmation). Conditions: drug 1 hour, then TNF stimulation.
Description: as §1, §2

In experiment [7] the test system is U266 and OVCAR8 cells. In words: Quantitation of viable cell number, U266 and OVCAR8 cells, harmine with additional STAT3 inhibitors. Particulars: U266, 15 μM harmine, 3 μM TG101348; OVCAR8, 15 μM harmine, 5 μM pimozide; 72 hours. Here is the method:
(§4) Cells were treated with the indicated drugs in 96 well plates for 48 to 72 hours. Viable cell number was assessed using ATP-dependent bioluminescence (Cell-TiterGlo; Promega). Data are expressed as average+/−SD of at least two replicates, and are representative of at least two separate experiments.

Experiment [8] deals with p65. In words: Chromatin immunoprecipitation at NF-κB binding sites of target genes, OVCAR8 cells. Conditions: harmine pretreatment, TNF 30 minutes. The protocol:
SKBR3 cells stimulated with IL-6 for 30 minutes, OVCAR8 cells treated with harmine for 16 hours and then stimulated with TNF for 30 minutes, or U266 cells treated with Jak inhibitor 1 for 3 hours were analyzed by ChIP. Cross-linking was performed with 1% formaldehyde (0.37% for U266 cells) for 10 min at room temperature, followed by quenching of formaldehyde using 0.125 M glycine. ChIP was performed essentially as described (Nelson et al., 2004 J Biol Chem, 279(52):54724-30). Chromatin was sheared by sonication using a Qsonica Q700 sonicator with a microtip at approximately 75% amplitude. Anti-STAT3 antibody as described above, anti-p65 (Santa Cruz Biotechnology, sc-109), or anti-RNA polymerase II (Santa Cruz Biotechnology, sc-9001) were used. ChIP product was analyzed by qPCR using the following primers: RELB ([…] (SEQ ID NO: 34) and […] (SEQ ID NO: 35)), IL8 ([…] (SEQ ID NO: 36) and […] (SEQ ID NO: 37)), BIRC3 ([…] (SEQ ID NO: 38) and […] (SEQ ID NO: 39)), TNFAIP3 ([…] (SEQ ID NO: 40) and […] (SEQ ID NO: 41)). Data were normalized relative to input and a nonbinding region of the rhodopsin (RHO) gene (Walker et al., 2013 Mol Cell Biol, 33(15):2879-90).

The test system of experiment [9] is multiple myeloma cells. The experiment is described as follows: Quantitation of viable cell number (Cell-TiterGlo), multiple myeloma cells. Here is the method:
as §4

The subject of experiment [10] is p65 and p50 NF-κB subunits. In words: Cellular fractionation and immunoblot of NF-κB subunits upon TNF stimulation, OVCAR8 cells. Conditions: 24 hours, then TNF. Here is the method: as §3
[11] abbreviates: OVCAR8 cells, 24 hours, qRT-PCR.

In the case of `CCN1/C(=C/C(C)=O)Sc2ccc(O)cc21` [INDY], the “NF-κB target gene expression” value in experiment [1] (setting [11]) is reported as “did not inhibit”.

Regarding `CC(C)(C)c1nc2c3cc[nH]c(=O)c3c3cc(F)ccc3c2[nH]1` [Jak inhibitor 1], the p65 nuclear translocation entry in experiment [2] is “not significantly altered”. Also, the “NF-κB reporter luciferase activity” value in experiment [3] is “enhanced”. For the same compound, in experiment [1] (A498 renal carcinoma cells, 24 hours), the “NF-κB target gene expression (IL-8)” value is given as “enhanced”. In addition, the “NF-κB target gene expression” value in experiment [1] (INA-6 MM cells, 22-24 hours) is reported as “enhanced”; in [1] (MDA-MB-468 breast cancer cells, 1 μM, 28 hours), “enhanced”; in experiment [1] (setting [11]), “enhanced”.

For the compound `COc1ccc2c(c1)[nH]c1c(C)nccc12` [harmine], the STAT3-dependent luciferase activity entry in experiment [4] is listed as “little effect; also recorded: not inhibiting”. The “apoptosis measured by PARP cleavage, combination with Jak inhibitor 1” value in experiment [5] is “enhanced apoptosis”. The “NF-κB-dependent luciferase activity (transcriptional activity of NF-κB)” value is “identified as an NF-κB inhibitor” in experiment [6] and “inhibitor of NF-κB-dependent luciferase; also recorded: inhibited” in experiment [6] (listed as Harmine). Moreover, in experiment [7], the “cell killing in combination with additional STAT3 inhibitors (relative viable cell number)” value is given as “enhanced killing”. Further, the “RNA polymerase II binding at NF-κB target genes (ChIP)” value in experiment [8] was “reduced”. In addition, the “p65 binding at NF-κB binding sites of target genes (ChIP)” value in experiment [8] was “reduced”. The “cell killing in combination with Jak inhibitor 1 (relative viable cell number)” value in experiment [9] (INA6, 5 μM harmine, 0.25 μM Jak inhibitor 1, 72 hours) is recorded as “synergistic cell killing”. For the same compound, the “viability of multiple myeloma cells (relative viable cell number)” value in experiment [9] (cells containing activated NF-κB (INA6, U266, MA/11.S), 72 hours) is reported as “inhibited the viability”. Also, in experiment [10], the “nuclear accumulation of p65 and p50” value is on record as “no effect”. Moreover, the “induction of NF-κB target genes induced by Jak inhibitor 1” value in experiment [1] (OVCAR8 cells, 24 hours, harmine together with Jak inhibitor 1) was “completely suppressed”. In addition, in experiment [1] (setting [11]), the “NF-κB target gene expression” value is “reduced; also recorded: inhibited”.

As for `O=C(N/N=C/c1ccc([N+](=O)[O-])o1)c1ccc(O)cc1` [nifuroxazide], the “NF-κB target gene expression” value is recorded as “upregulation” in [1] (INA-6 MM cells, 22-24 hours) and “upregulation” in experiment [1] (setting [11]).
